Data reported in patent US20250195416A1, “DISSOLVABLE POLYMERIC OCULAR INSERT FOR DRUGS DELIVERY” (Alcon Inc., priority 2023, published 2025).

Assay: In vitro release of olopatadine from polymer gel films (USP Apparatus 7, HPLC-UV)
Type: physicochemical
Conditions: FIGS. 1A and 1B
Protocol: Release of olopatadine from polymer gel films was studied in vitro using water or phosphate buffered saline (PBS) as the dissolution media. Dissolution was performed using USP Apparatus 7 and samples were collected by its autosampler. HPLC—with UV-vis detector was used to measure component concentration during dissolution samples at different time points. […] Olopatadine HCl remains as a zwitterion at physiological pH due to the negatively charged carboxylic group and positively charged tertiary amino group on the molecule, therefore possible mechanism of API release from the gel films into dissolution media is through ion exchange. HA in gel films may complex with olopatadine through ionic interaction. […] Dissolution media plays a main role in the release profiles, as ionic bonding occurred between HA and Olopatadine. Ionic polymer provides some prolong release. Diffusion is believed to be the main release mechanism. PBS: phosphate-buffered saline pH 7.2; DI water: deionized water.

Olopatadine release rate, PBS versus water (dissolution media PBS pH 7.2 or DI water): faster in PBS than in water
Burst release of olopatadine (water and PBS): no burst release
Structure (SMILES): CN(C)CC/C=C1/c2ccccc2COc2ccc(CC(=O)O)cc21.Cl [olopatadine, 11-[(Z)-3-(Dimethylamino)propylidene]-6-11-dihydrodibenz[b,e] oxepin-2-acetic acid hydrochloride]
